Here are results for 45 compounds from patent EP1724268A1, “COMPOUND HAVING TGF-BETA INHIBITORY ACTIVITY AND PHARMACEUTICAL COMPOSITION CONTAINING SAME” (KIRIN BEER KABUSHIKI KAISHA, priority 2004, dated 2005).

Where two headings read alike, the source gives them in different places.

This test has as its system TGFβ signal. In words: TGFβ signal inhibitory activity, (SBE)4-Luc reporter in A549 cells (Test Examples 1A and 1B). In kind it is cell-based, human. Particulars: Homo sapiens, A549, read-out: TGFβ inhibition rate, %. Summed up:
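Compounds at 3 µM and 10 µM (some 1 µM) were added with 2 ng/ml TGFβ-1 to A549 cells stably expressing an SBE-driven luciferase, then cultured 4 hr. Chemiluminescent luciferase signal gave % inhibition versus TGFβ-alone and no-TGFβ controls.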

The mark [1] stands for this setting: 3 µM, compounds of Reference Examples (Test Example 1B).
[2] abbreviates: 10 µM, compounds of Reference Examples (Test Example 1B).
The mark [3] stands for this setting: test compound 3 µM, TGFβ-1 2 ng/ml, 4 hr, Table 1A.
Setting [4] is: test compound 10 µM, TGFβ-1 2 ng/ml, 4 hr, Table 1A.
Where [5] appears, read: test compound 3 µM, Reference Examples, Table 1B.
Setting [6] is: test compound 10 µM, Reference Examples, Table 1B.

One may read the inhibition as the change of the read-out against control, counted positive when it falls. `COc1cc2nccc(Oc3ccnc4ccsc34)c2cc1OC` [Compound r307]: the inhibition at 3 µM under setting [1] came out at 26%. Under setting [2], the inhibition at 10 µM was 69%. As to `Cc1cc(Oc2ccnc3ccc(OCc4ccccc4)cc23)c(-c2ccccn2)nc1C` [Compound 136, 3-(6-Benzyloxy-quinolin-4-yloxy)-5,6-dimethyl-[2,2']bipyridine], the inhibition at 3 µM under setting [3] was 93%. Besides, the inhibition at 10 µM under setting [4] turned out to be 100%. Consider `COc1cc2c(Oc3cc4ccccc4nc3C)ccnc2cc1OCCN1CCC(O)CC1` [Compound r364], for which, under setting [1], the inhibition at 3 µM turned out to be 100%. Further, the inhibition at 10 µM under setting [2] is 100%. As for `COc1cc2nccc(Oc3cc4cncnc4cc3C)c2cc1OC` [Compound r305, 6-(6,7-Dimethoxy-quinolin-4-yloxy)-7-methyl-quinazoline], the inhibition at 3 µM under setting [1] is 28%. For the same compound, the inhibition at 10 µM under setting [2] was found to be 64%. Turning to `COc1cc2c(Oc3cc(C)c(C)nc3-c3ccccc3)ccnc2cc1OCc1ccccc1` [Compound r331], under setting [1], the inhibition at 3 µM is 73%. Under setting [2], the inhibition at 10 µM turned out to be 90%. Turning to `COc1cc2nccc(Oc3ccc(Br)cc3C(C)=O)c2cc1OC` [r34], the inhibition at 3 µM under setting [5] amounted to 0%. Further, under setting [6], the inhibition at 10 µM is 78%.

`CCOC(=O)C(Oc1cc2nccc(Oc3cc4ccccc4nc3C)c2cc1OC)C(=O)OCC` [Compound r373]: the inhibition at 3 µM under setting [1] came out at 48%. Also, under setting [2], the inhibition at 10 µM was found to be 86%. The corresponding values for `COc1cc2c(Oc3cc(C)c(C)nc3-c3cccc(C)n3)ccnc2cc1OCC(O)CO` (centres unmarked) [Compound r449] are 74% and 98%. Turning to `COc1cc2nccc(Oc3ccc(C)nc3-c3ccc(CO)cc3)c2cc1OC` [Compound r245], the inhibition at 3 µM under setting [1] turned out to be 80%. The inhibition at 10 µM under setting [2] is 99%. For `COc1ccc2nccc(Oc3cc(C)c(C)nc3-c3ccccn3)c2n1` [Compound 121, 8-(5,6-Dimethyl-[2,2']bipyridinyl-3-yloxy)-2-methoxy-[1,5]naphthyridine], under setting [3], the inhibition at 3 µM is 98%. In addition, the inhibition at 10 µM under setting [4] came to 100%.

Turning to `COc1cc2nccc(Oc3ccc(C)cc3C(=O)c3ccc(OCCN4CCOCC4)cc3)c2cc1OC` [Compound r191], the inhibition at 3 µM under setting [1] is 39%. Moreover, the inhibition at 10 µM under setting [2] was 93%. For `COc1cc2c(Oc3ccc(C)cc3C(=O)c3ccccc3)ccnc2cc1OCCN1CCC(N2CCCC2)CC1` [Compound r127], the inhibition at 3 µM under setting [5] came out at 99%. Also, the inhibition at 10 µM under setting [6] came out at 100%. Consider `COc1cc2c(Oc3ccc(C)cc3C(=O)c3ccccc3)ccnc2cc1OCC(O)CN1CCC(N2CCCCC2)CC1` (centres unmarked) [Compound r156], for which, under setting [5], the inhibition at 3 µM worked out at 99%. Under setting [6], the inhibition at 10 µM was 100%. The corresponding values for `CCOC(=O)c1ccc(C)cc1Oc1ccnc2cc(OC)c(OC)cc12` [Compound r82] are 90% and 99%. Take `COc1cc2nccc(Oc3ccc(C)nc3-c3ccccc3)c2cc1OC` [Compound r223, 6,7-Dimethoxy-4-(6-methyl-2-phenyl-pyridin-3-yloxy)-quinoline]: under setting [1], the inhibition at 3 µM turned out to be 99%. Under setting [2], the inhibition at 10 µM was 100%. As to `CCOC(=O)c1cc2cc(Oc3ccnc4cc(OC)c(OC)cc34)ccc2[nH]1` [Compound r22], under setting [5], the inhibition at 3 µM amounted to 11%. Under setting [6], the inhibition at 10 µM came to 81%. For `COc1cc2nccc(Oc3cc4ccccc4nc3C)c2cc1OCc1ccccc1` [Compound r415, 6-Benzyloxy-7-methoxy-4-(2-methyl-quinolin-3-yloxy)-quinoline], under setting [1], the inhibition at 3 µM was determined as 77%. For the same compound, the inhibition at 10 µM under setting [2] turned out to be 100%. The corresponding values for `COc1cc2nccc(Oc3cc4cccnc4cc3C)c2cc1OC` [r296] are 86% and 100%.

For the compound `COc1cc2nccc(Oc3ccc(C)nc3-c3ccc(F)cc3)c2cc1OC` [Compound r251], the inhibition at 3 µM under setting [1] worked out at 84%. Besides, under setting [2], the inhibition at 10 µM came out at 100%.

As to `Cc1cc(Oc2ccnc3ccc(-c4ccccc4N)cc23)c(-c2ccccn2)nc1C` [Compound 9, 2-[4-(5,6-Dimethyl-[2,2']bipyridin-3-yloxy)-quinolin-6-yl]-phenylamine], under setting [3], the inhibition at 3 µM is 87%. In addition, the inhibition at 10 µM under setting [4] was 100%. Regarding `COc1cc(Oc2ccnc3cc(OC)c(OC)cc23)c(C(C)=O)cc1OC` [Compound r39], the inhibition at 3 µM under setting [5] was 0%. Under setting [6], the inhibition at 10 µM is 91%. Turning to `COc1cc2c(Oc3cc4ccccc4nc3C)ccnc2cc1OCCCNC(=N)N` [Compound r377], the inhibition at 3 µM under setting [1] was 93%. Further, the inhibition at 10 µM under setting [2] was determined as 100%. In the case of `CCCOC(=O)c1cc(C(C)=O)ccc1Oc1ccnc2cc(OC)c(OC)cc12` [Compound r95], under setting [5], the inhibition at 3 µM was found to be 67%. In addition, the inhibition at 10 µM under setting [6] is 96%.

As to `COc1cc2nccc(Oc3ccc(C)c(C)c3)c2cc1OC` [r15], under setting [5], the inhibition at 3 µM was 41%. In addition, the inhibition at 10 µM under setting [6] turned out to be 84%. Taken in the same sequence, the figures for `COc1cc2nccc(Oc3ccc(Br)cc3C(=O)Nc3ccc(Cl)cc3)c2cc1OC` [Compound r108] were 0% and 73%.

Take `COc1cc2c(Oc3cc(C)c(C)nc3-c3ccccn3)ccnc2cc1C(N)=O` [Compound 145, 4-(5,6-Dimethyl-[2,2']bipyridinyl-3-yloxy)-6-methgxy-quinoline-7-carboxylic acid amide]: the inhibition at 3 µM under setting [3] worked out at 78%. For the same compound, under setting [4], the inhibition at 10 µM stood at 100%.

Turning to `COc1cc2nccc(Oc3cc(Cl)c(C)cc3C(C)=O)c2cc1OC` [Compound r184], under setting [1], the inhibition at 3 µM turned out to be 100%. For the same compound, the inhibition at 10 µM under setting [2] worked out at 100%. In the case of `CCCCc1ccc(-c2nc(C)ccc2Oc2ccnc3cc(OC)c(OC)cc23)cc1` [Compound r244], the inhibition at 3 µM under setting [1] was -3%. For the same compound, under setting [2], the inhibition at 10 µM was 63%. In the case of `CCN(CC)CCCCOc1cc2nccc(Oc3ccc(C)cc3C(=O)c3ccccc3)c2cc1OC` [r143], under setting [5], the inhibition at 3 µM came out at 97%. For the same compound, the inhibition at 10 µM under setting [6] is 100%.

As for `CCOC(=O)c1cc(Cl)ccc1Oc1ccnc2cc(OC)c(OC)cc12` [Compound r84], the inhibition at 3 µM under setting [5] is 84%. Under setting [6], the inhibition at 10 µM was 100%.

In the case of `COc1cc2nccc(Oc3cc4ccccc4cc3C(C)=O)c2cc1OC` [Compound r200, 1-[3-(6,7-Dimethoxy-quinolin-4-yloxy)-naphthalene-2-yl]-ethanone], under setting [1], the inhibition at 3 µM came to 94%. In addition, the inhibition at 10 µM under setting [2] worked out at 100%. Regarding `Cc1cc(Oc2ccnc3ccc(-c4cccn4C(=O)OC(C)(C)C)cc23)c(-c2ccccn2)nc1C` [Compound 167, 2-[4-(5,6-Dimethyl-[2,2']bipyridinyl-3-yloxy)-quinolin-6-yl]-pyrrole-1-carboxylate tert-butyl ester], under setting [3], the inhibition at 3 µM was found to be 35%. Also, under setting [4], the inhibition at 10 µM is 85%. With `CCOC(=O)c1cc(I)ccc1Oc1ccnc2cc(OC)c(OC)cc12` [Compound r86], the inhibition at 3 µM under setting [5] was found to be 68%. Also, under setting [6], the inhibition at 10 µM was determined as 99%. Regarding `COc1cc2c(Oc3cc(C)c(C)nc3-c3ccc(C)cn3)ccnc2cc1OCCNCCO` [r469], the inhibition at 3 µM under setting [1] was determined as 100%.

In the case of `Cc1cc(Oc2ccnc3ccc(-c4ccccn4)cc23)c(-c2ccccn2)nc1C` [Compound 174, 5,6-Dimethyl-3-(6-pyridin-2-yl-quinolin-4-yloxy)-[2,2']bipyridine], under setting [3], the inhibition at 3 µM was 89%. Also, under setting [4], the inhibition at 10 µM worked out at 100%. Taken in the same sequence, the figures for `Cc1cc(Oc2ccnc3ccc(-c4cccnc4)cc23)c(-c2ccccn2)nc1C` [Compound 6, 5,6-Dimethyl-3-(6-pyridin-3-yl-quinolin-4-yloxy)-[2,2']bipyridine] were 100% and 100%. The corresponding values for `CCc1ccc(Oc2ccnc3cc(OC)c(OC)cc23)c(-c2cccnc2)n1` [Compound 46, 3-(6,7-Dimethoxy-quinolin-4-yloxy)-6-ethyl-[2,3']bipyridine] are 100% and 100%.

As for `COc1cc2c(Oc3cc4ccccc4nc3C)ccnc2cc1OCCCO` [Compound r382], the inhibition at 3 µM under setting [1] amounted to 100%. The inhibition at 10 µM under setting [2] stood at 100%. On to `COc1ccc(Oc2ccnc3cc(OC)c(OC)cc23)cn1` [Compound r207, 6,7-Dimethoxy-4-(6-methoxy-pyridin-3-yloxy)-quinoline], for which the inhibition at 3 µM under setting [1] was 77%. Moreover, the inhibition at 10 µM under setting [2] was determined as 99%. As to `Cc1cc(Oc2ccnc3c(F)cc(F)cc23)c(-c2ccccn2)nc1C` [Compound 111, 3-(6,8-Difluoro-quinolin-4-yloxy)-5,6-dimethyl-[2,2']bipyridine], the inhibition at 3 µM under setting [3] turned out to be 43%. The inhibition at 10 µM under setting [4] worked out at 84%. Take `COc1cc2c(Oc3ccc(C)cc3C(=O)c3ccccc3)ccnc2cc1OCCn1ccnc1` [Compound r131]: under setting [5], the inhibition at 3 µM turned out to be 96%. Under setting [6], the inhibition at 10 µM came to 100%. `COc1cc2nccc(Oc3cc4ccccc4nc3CCC(C)C)c2cc1OC` [r439]: the inhibition at 3 µM under setting [1] turned out to be 43%. Under setting [2], the inhibition at 10 µM was found to be 95%. Taken in the same sequence, the figures for `COc1cc2nccc(Nc3cnc4ccccc4c3)c2cc1OC` [r418] were 46% and 73%. Turning to `CCN(C)CCOc1ccc2nccc(Oc3ccc(C)nc3-c3ncccn3)c2c1` [Compound 223, ethyl-methyl-{2-[4-(6-methyl-2-pyrimidin-2-yl-pyridin-3-yloxy)-quinolin-6-yloxy]-ethyl}-amine], the inhibition at 3 µM under setting [3] turned out to be 52%. For the same compound, the inhibition at 10 µM under setting [4] turned out to be 90%.

For `COc1cc2c(Oc3cc(C)c(C)cc3C(C)=O)ccnc2cc1OCCCn1ccnc1` [Compound r321], the inhibition at 3 µM under setting [1] stood at 100%. For the same compound, the inhibition at 10 µM under setting [2] came out at 100%.
